Measured values published in publication PMC9541843, “N‐terminal alterations turn the gut hormone GLP‐2 into an antagonist with gradual loss of GLP‐2 receptor selectivity towards more GLP‐1 receptor interaction” (British Journal of Pharmacology, 2022).
Peptide text beside a SMILES is read from it. * marks the point of attachment. C16 diacid = O=C(O)CCCCCCCCCCCCCCC(=O)*

Legend:
human GLP‐2R = target: T1, human GLP‐2R (Homo sapiens, UniProt O95838); test: cAMP accumulation, inhibition of GLP‐2‐induced activation
T1 sequence (O95838 1-553): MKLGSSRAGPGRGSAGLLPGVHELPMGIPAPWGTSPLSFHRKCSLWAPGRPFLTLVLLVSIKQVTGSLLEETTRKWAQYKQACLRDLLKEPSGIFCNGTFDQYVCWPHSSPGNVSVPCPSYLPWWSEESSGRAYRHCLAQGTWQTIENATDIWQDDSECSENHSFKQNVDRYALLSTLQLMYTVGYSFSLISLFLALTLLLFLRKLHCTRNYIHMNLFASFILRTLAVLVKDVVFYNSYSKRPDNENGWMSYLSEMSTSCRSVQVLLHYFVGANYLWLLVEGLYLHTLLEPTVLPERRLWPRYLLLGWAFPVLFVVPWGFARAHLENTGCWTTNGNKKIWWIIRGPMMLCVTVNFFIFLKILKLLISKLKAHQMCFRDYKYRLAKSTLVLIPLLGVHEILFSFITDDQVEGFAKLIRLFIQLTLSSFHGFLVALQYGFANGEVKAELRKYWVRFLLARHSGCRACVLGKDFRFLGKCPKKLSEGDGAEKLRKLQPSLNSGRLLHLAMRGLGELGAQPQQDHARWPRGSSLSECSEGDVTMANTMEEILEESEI

human GLP‐1R [1] = target: T2, human GLP‐1R (Homo sapiens, UniProt P43220); test: cAMP accumulation, inhibition of GLP‐1‐mediated response (selectivity)
human GLP‐1R [2] = target: T2, human GLP‐1R; test: cAMP accumulation, agonism (selectivity)

T2 sequence (P43220 24-463): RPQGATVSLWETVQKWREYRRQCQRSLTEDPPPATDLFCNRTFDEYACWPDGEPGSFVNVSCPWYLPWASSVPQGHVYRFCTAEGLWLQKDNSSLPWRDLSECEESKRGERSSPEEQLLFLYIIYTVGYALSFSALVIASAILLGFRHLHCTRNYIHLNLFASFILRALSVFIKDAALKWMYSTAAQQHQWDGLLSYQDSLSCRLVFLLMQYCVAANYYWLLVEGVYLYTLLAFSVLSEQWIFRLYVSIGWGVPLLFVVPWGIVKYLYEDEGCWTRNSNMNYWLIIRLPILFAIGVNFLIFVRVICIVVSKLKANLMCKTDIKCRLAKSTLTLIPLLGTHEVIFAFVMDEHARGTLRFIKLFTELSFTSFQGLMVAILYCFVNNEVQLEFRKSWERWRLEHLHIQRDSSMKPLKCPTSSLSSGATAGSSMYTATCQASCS

Compound: CC[C@H](C)[C@H](NC(=O)[C@H](Cc1ccccc1)NC(=O)[C@H](CC(=O)O)NC(=O)[C@H](CCCNC(=N)N)NC(=O)[C@H](C)NC(=O)[C@H](C)NC(=O)[C@H](CC(C)C)NC(=O)[C@H](CC(N)=O)NC(=O)[C@H](CC(=O)O)NC(=O)[C@H](CC(C)C)NC(=O)[C@@H](NC(=O)[C@@H](NC(=O)[C@H](CC(N)=O)NC(=O)[C@H](CCSC)NC(=O)[C@H](CCC(=O)O)NC(=O)[C@H](CC(=O)O)NC(=O)[C@H](CO)NC(=O)[C@H](Cc1ccccc1)NC(=O)[C@H](CO)NC(=O)CNC(=O)CCCCCCCCCCCCCCC(=O)O)[C@@H](C)O)[C@@H](C)CC)C(=O)N[C@@H](CC(N)=O)C(=O)N[C@@H](Cc1c[nH]c2ccccc12)C(=O)N[C@@H](CC(C)C)C(=O)N[C@H](C(=O)N[C@@H](CCC(N)=O)C(=O)N[C@H](C(=O)N[C@@H](CCCCN)C(=O)N[C@H](C(=O)N[C@H](C(=O)N[C@@H](CC(=O)O)C(=O)O)[C@@H](C)O)[C@@H](C)CC)[C@@H](C)O)[C@@H](C)CC [GLP‐2(4‐33)(C16‐diacid/4)] ({C16 diacid}-GSFSDEMNTILDNLAARDFINWLIQTKITD-OH)
- IC50 (human GLP‐2R): 11.7 nM
- Inhibition of GLP‐2‐induced cAMP at the human GLP‐2R (human GLP‐2R; at 1 μM peptide (highest tested concentration), COS‐7 cells): 95%
- IC50 (human GLP‐1R [1]): 79 nM
- inhibition at 1 µM (human GLP‐1R [1]; COS-7, read-out: Inhibition of GLP‐1‐mediated cAMP response at the human GLP‐1R): 41%
- EC50 (human GLP‐1R [2]): 2.5 nM
- Efficacy of GLP‐1R activation (human GLP‐1R [2]; COS‐7 cells, human GLP‐1R, cAMP, 1 μM stimulation, n = 3 in duplicate): 16%
